Laboratory results as given in patent US6344479B1, “Method of preventing retinopathy of prematurity in a neonate” (Farmacon-Il, LLC, priority 2001, dated 2002).

Columns and labels:
prematurely born infants = test: Clinical study: development of retinopathy of prematurity (ROP) in premature neonates given NSAID; format: in vivo, human; conditions: for Max ROP grades: data as means per treatment group; for ROP: No (number of neonates without ROP) / ROP: Yes (number of neonates with any ROP): data as numbers of neonates per treatment group, i.v. postnatal treatment, gestation no more than 31 weeks
Experimental: A clinical study was carried out at the Neonatology Unit of University Hospital, Antwerp, Belgium.
Patients and Methods: 229 prematurely born infants were included in the study. All infants were born after a gestation period of no more than 31 weeks and all infants survived for a period of at least 21 days. Prospective serial retinal observation were performed by pediatric ophthalmologist starting at a postmenstrual age of 33 weeks. Evaluation for ROP in both eyes included staging and extension of disease, zone of involvement, number of clock hours, and the presence of any additional disease.

mouse = conditions: administered concurrently with the injury phase; normal growth not affected; cited from earlier work

SMILES: CC(C)Cc1ccc(C(C)C(=O)O)cc1 (centres unmarked) [Ibuprofen, ibuprofen lysinate]
- Max ROP grades (prematurely born infants): 0.26 units
- ROP: No (number of neonates without ROP) (prematurely born infants): 26
- ROP: Yes (number of neonates with any ROP) (prematurely born infants): 5
- Risk of developing ROP (in words) (prematurely born infants; postnatal administration, independently of other studied neonatal risk factors): significantly reduced

SMILES: COc1ccc2c(c1)c(CC(=O)O)c(C)n2C(=O)c1ccc(Cl)cc1 [Indomethacin, indomethacin]
- Effect on oxygen-induced retinopathy (in words) (mouse): improved oxygen-induced retinopathy
- Max ROP grades (prematurely born infants): 1 units
- ROP: No (number of neonates without ROP) (prematurely born infants): 32
- ROP: Yes (number of neonates with any ROP) (prematurely born infants): 30
